Data as given in PMC13303826, “Nicotinonitrile based dual inhibitors of tubulin and topoisomerase II exhibit potent anticancer activity” (Scientific Reports, 2026).

Experiments:
MCF7 cells = test: LDH release cytotoxicity assay, MCF7; type: cell-based; settings: Homo sapiens, 48 h, mean ± SD, read-out: In vitro cytotoxicity IC50 µM ± SD, MCF7
Method: (§1) HepG2 (Human liver carcinoma), HCT116 (human colorectal carcinoma), MCF7 (human breast adenocarcinoma), and the normal human skin fibroblast (BJ-1) cell lines were purchased from the american type culture collection (Rockville, MD, USA) and maintained in RPMI-1640 medium which was supplemented with 10% heat-inactivated FBS, 100U/ml penicillin and 100U/ml streptomycin. The cells were grown at 37 °C in a humidified atmosphere of 5% CO2. All experiments were conducted thrice in triplicate (n = 3). All the values were represented as means ± SD. Significant differences between the means of parameters as well as IC50s were determined by probit analysis using SPSS software program (SPSS Inc., Chicago, IL).
(§2) To determine the effect of each synthesized compound on membrane permeability in HepG2, MCF-7 and HCT116 cancer cell lines as well as BJ-1 normal cell line, a lactate dehydrogenase (LDH) release assay was used[29]–[33]. The cells were seeded in 24-well culture plates at a density of 1 × 10^4 cells/well in 500 µL volume and allowed to grow for 18 h before treatment. After treatment with a series of different concentrations of each compound or DOX (positive control), the plates were incubated for 48 h. Then, the supernatant (40 µL) was transferred to a new 96 well to determine LDH release and 6% triton X-100 (40 µL) was added to the original plate for determination of total LDH. An aliquot of 0.1 M potassium phosphate buffer (100 µL, pH 7.5) containing 4.6 mM pyruvic acid was mixed to the supernatant using repeated pipetting. Then, 0.1 M potassium phosphate buffer (100 µL, pH 7.5) containing 0.4 mg/mL reduced β-NADH was added to the wells. The kinetic changes were read for 1 min using ELISA microplate reader in absorbance at wavelength 340 nm. This procedure was repeated with 40 µL of the total cell lysate to determine total LDH. The percentage of LDH release was determined by dividing the LDH released into the media by the total LDH following cell lysis in the same well. The cell Passage numbers for MCF 7 = P13, Hep G2 = P15, HCT 116 = P 9.
(§3) All experiments were conducted in triplicate (n = 3). All the values were represented as mean ± SD. Significant differences between the means of parameters as well as IC50s were determined by probit analysis using SPSS software program (SPSS Inc., Chicago, IL).

HepG2 cells = test: LDH release cytotoxicity assay, HepG2; type: cell-based; settings: Homo sapiens, 48 h, mean ± SD, read-out: In vitro cytotoxicity IC50 µM ± SD, HepG2
Method: as §1, §2, §3

HCT116 cells = test: LDH release cytotoxicity assay, HCT116; type: cell-based; settings: Homo sapiens, HCT-116, 48 h, mean ± SD, read-out: In vitro cytotoxicity IC50 µM ± SD, HCT116
Method: as §1, §2, §3

beta-tubulin = test: Inhibition of tubulin polymerization in MCF-7 cells (beta-tubulin SimpleStep ELISA); type: cell-based, human; settings: MCF7 cells, concentration not given
Text: Beta-tubulin in vitro simple step ELISA® (Enzyme-Linked Immunosorbent Assay) kit is designed for quantitative measurement of beta-tubulin protein in human cell and tissue homogenate extract samples.
The SimpleStep ELISA® employs an affinity tag labeled capture antibody and a reporter conjugated detector antibody which immunocapture the sample analyte in solution. This entire complex (capture antibody/analyte/detector antibody) is in turn immobilized via immunoaffinity of an anti-tag antibody coating the well. To perform the assay, samples or standards are added to the wells, followed by the antibody mix. After incubation, the wells are washed to remove unbound material. TMB development solution is added and during incubation is catalyzed by horseradish peroxidase (HRP), generating blue coloration. This reaction is then stopped by addition of stop solution completing any color change from blue to yellow. Signal is generated proportionally to the amount of bound analyte and the intensity is measured at 450 nm. Optionally, instead of the endpoint reading, development of TMB can be recorded kinetically at 600 nm. The concentration of beta-tubulin protein in the samples is determined by comparing the optical density (OD) of the samples to the standard curve. Each experiment was repeated two times (Table 2).

Topo II = test: Inhibition of topoisomerase II in MCF-7 cells (TOP2B sandwich ELISA); type: cell-based, human; settings: MCF7 cells, concentration not given
Method: Mouse TOP2B/Topoisomerase II Beta ELISAKit (Sandwich ELISA) is designed for the quantitative measurement of Topo II enzyme.
This assay is based on the sandwich ELISA principle. Each well of the supplied microtiter plate has been pre-coated with a target specific capture antibody. Standards or samples are added to the wells, and the target antigen binds to the capture antibody. Unbound standard or sample is washed away. A biotin-conjugated detection antibody is then added which binds to the captured antigen. Unbound detection antibody is washed away. An avidin-horseradish peroxidase (HRP) conjugate is then added which binds to the biotin. Unbound avidin-HRP conjugate is washed away. A TMB substrate is then added which reacts with the HRP enzyme resulting in color development. A sulfuric acid stop solution is added to terminate color development reaction and then the optical density (OD) of the well is measured at a wavelength of 450 nm ± 2 nm. An OD standard curve is generated using known antigen concentrations; the OD of an unknown sample can then be compared to the standard curve to determine its antigen concentration. Each experiment was repeated two times (Table 3).

BJ1 normal cells = test: LDH release cytotoxicity assay, normal skin fibroblasts BJ1; type: cell-based, human; settings: non-tumor BJ1 fibroblasts
Method: as §1, §2, §3

Compound | IC50 (MCF7 cells) [µM] | IC50 (HepG2 cells) [µM] | IC50 (HCT116 cells) [µM] | tubulin polymerization % inhibition (beta-tubulin) [%] | Topo II % inhibition (Topo II) [%] | Cytotoxicity / selectivity toward BJ1 normal cells (in words) (BJ1 normal cells)
COc1ccc(-c2cc(-c3cc(OC)c(OC)c(OC)c3)c(C#N)c3nnnn23)cc1OC [Compound 27, 5-(3,4-dimethoxyphenyl)-7-(3,4,5-trimethoxyphenyl)tetrazolo[1,5-a]pyridine-8-carbonitrile] | 2.5 ± 0.2 | 25.5 ± 2.4 | 60.1 ± 6.2 | 49.8 | – | –
COc1ccc(-c2cc(-c3cc(OC)cc(OC)c3)c(C#N)c3nnnn23)cc1 [Compound 30, 7-(3,5-dimethoxyphenyl)-5-(4-methoxyphenyl)tetrazolo[1,5-a]pyridine-8-carbonitrile] | 3.2 ± 0.2 | 27.1 ± 2.2 | 40.5 ± 3.3 | – | – | –
COc1cc(-c2cc(-c3ccco3)c(C#N)c(N=P(c3ccccc3)(c3ccccc3)c3ccccc3)n2)cc(OC)c1OC [Compound 40, 4-(Furan-2-yl)-6-(3,4,5-trimethoxyphenyl)-2-((triphenyl-λ^5-phosphaneylidene)amino)nicotino-nitrile] | 5.7 ± 0.2 | 27.7 ± 2.1 | 55.7 ± 4.9 | – | – | –
COc1ccc(-c2cc(-c3ccc(OC)c(OC)c3)n3nnnc3c2C#N)cc1 [Compound 31, 5-(3,4-dimethoxyphenyl)-7-(4-methoxyphenyl)tetrazolo[1,5-a]pyridine-8-carbonitrile] | 3.1 ± 0.3 | 25.7 ± 2.4 | 31 ± 2.5 | – | – | –
COc1cc(-c2cc(-c3cc(OC)c(OC)c(OC)c3)c(C#N)c(N=P(c3ccccc3)(c3ccccc3)c3ccccc3)n2)cc(OC)c1OC [Compound 36, 4,6-Bis(3,4,5-trimethoxyphenyl)-2-((triphenyl-λ^5-phosphaneylidene)amino)nicotinonitrile] | 3 ± 0.1 | 25.2 ± 2.1 | 41.7 ± 4.1 | – | – | –
COc1cccc2c1C(=O)c1c(O)c3c(c(O)c1C2=O)C[C@@](O)(C(=O)CO)C[C@@H]3O[C@H]1C[C@H](N)[C@H](O)[C@H](C)O1 [DOX, doxorubicin, reference compound] | 2.8 ± 0.3 | 2.6 ± 0.2 | 12.5 ± 1.5 | – | 81.6 | –
COc1cc(OC)cc(-c2cc(-c3ccc(OC)c(OC)c3)nc(N=P(c3ccccc3)(c3ccccc3)c3ccccc3)c2C#N)c1 [Compound 37, 6-(3,4-Dimethoxyphenyl)-4-(3,5-dimethoxyphenyl)-2-((triphenyl-λ^5-phosphaneylidene)amino)-nicotinonitrile] | 2.6 ± 0.1 | 29.3 ± 2.5 | 36 ± 3.3 | 74.3 | 82.4 | –
COc1ccc(-c2cc(-c3cc(OC)c(OC)c(OC)c3)c(C#N)c(Cl)n2)cc1OC [Compound 19, 2-Chloro-6-(3,4-dimethoxyphenyl)-4-(3,4,5trimethoxyphenyl)nicotinonitrile] | 2.7 ± 0.2 | 24.1 ± 2.2 | 44.1 ± 4.7 | – | – | –
COc1ccc(-c2cc(-c3cc(OC)cc(OC)c3)c(C#N)c(Cl)n2)cc1 [Compound 22, 2-Chloro-4-(3,5-dimethoxyphenyl)-6-(4-methoxyphenyl)nicotinonitrile] | 2.6 ± 0.2 | 25.3 ± 2.3 | 36.8 ± 3.5 | 70.9 | 42 | –
COc1ccc(-c2cc(-c3cc(OC)c(OC)c(OC)c3)c(C#N)c(N=P(c3ccccc3)(c3ccccc3)c3ccccc3)n2)cc1 [Compound 34, 6-(4-Methoxyphenyl)-4-(3,4,5-trimethoxyphenyl)-2-((triphenyl-λ^5-phosphaneylidene)amino)-nicotinonitrile] | 5.1 ± 0.2 | 28.4 ± 2.3 | 49.9 ± 4.2 | – | – | –
COc1cc(OC)cc(-c2cc(-c3ccc(OC)c(OC)c3)nc(Cl)c2C#N)c1 [Compound 21, 2-Chloro-6-(3,4-dimethoxyphenyl)-4-(3,5-dimethoxyphenyl)nicotinonitrile] | 2.8 ± 0.2 | 12.3 ± 1.5 | 48.1 ± 4.2 | – | – | –
COc1ccc(-c2cc(-c3cc(OC)c(OC)c(OC)c3)c(C#N)c(Cl)n2)cc1 [Compound 18, 2-Chloro-6-(4-methoxyphenyl)-4-(3,4,5-trimethoxyphenyl)nicotinonitrile] | 2.9 ± 0.2 | 26.2 ± 2.5 | 45.6 ± 4.1 | – | – | –
COc1ccc(-c2cc(-c3ccc(OC)c(OC)c3)nc(N=P(c3ccccc3)(c3ccccc3)c3ccccc3)c2C#N)cc1 [Compound 39, 6-(3,4-Dimethoxyphenyl)-4-(4-methoxyphenyl)-2-((triphenyl-λ^5-phosphaneylidene)amino)-nicotinonitrile] | 3 ± 0.1 | 12.6 ± 1.1 | 32.5 ± 3.2 | – | – | good selectivity
COc1cc(-c2cc(-c3ccco3)c(C#N)c(Cl)n2)cc(OC)c1OC [Compound 24, 2-Chloro-4-(furan-2-yl)-6-(3,4,5-trimethoxyphenyl)nicotinonitrile] | 2.5 ± 0.2 | 22.7 ± 2.1 | 49.3 ± 4.2 | 55.4 | 55.3 | –
COc1ccc(-c2cc(-c3cc(OC)c(OC)c(OC)c3)c(C#N)c(N=P(c3ccccc3)(c3ccccc3)c3ccccc3)n2)cc1OC [Compound 35, 6-(3,4-Dimethoxyphenyl)-4-(3,4,5-trimethoxyphenyl)-2-((triphenyl-λ^5-phosphaneylidene)-amino)nicotinonitrile] | 2.7 ± 0.1 | 32.4 ± 3.1 | 57.6 ± 4.1 | 61.9 | – | –
Cc1cc(-c2ccco2)c(C#N)c2nnnn12 [Compound 33, 7-(furan-2-yl)-5-methyltetrazolo[1,5-a]pyridine-8-carbonitrile] | 2.6 ± 0.2 | 25.2 ± 2.5 | 40.7 ± 3.9 | 68.9 | – | –
COc1ccc(-c2cc(-c3ccc(OC)c(OC)c3)nc(Cl)c2C#N)cc1 [Compound 23, 2-Chloro-6-(3,4-dimethoxyphenyl)-4-(4-methoxyphenyl)nicotinonitrile] | 2.6 ± 0.2 | 29.4 ± 2.3 | 49.1 ± 5.1 | – | – | –
COc1cc(-c2cc(-c3ccco3)c(C)c3nnnn23)cc(OC)c1OC [Compound 32, 7-(furan-2-yl)-8-methyl-5-(3,4,5-trimethoxyphenyl)tetrazolo[1,5-a]pyridine] | 3 ± 0.3 | 28.2 ± 2.5 | 98 ± 8.6 | – | – | –
COc1cc(OC)cc(-c2cc(-c3ccc(OC)c(OC)c3)n3nnnc3c2C#N)c1 [Compound 29, 5-(3,4-dimethoxyphenyl)-7-(3,5-dimethoxyphenyl)tetrazolo[1,5-a]pyridine-8-carbonitrile] | 3.1 ± 0.3 | 27.1 ± 2.5 | 55.4 ± 5.1 | – | – | –
COc1cc(-c2cc(-c3cc(OC)c(OC)c(OC)c3)n3nnnc3c2C#N)cc(OC)c1OC [Compound 28, 5,7-bis(3,4,5-trimethoxyphenyl)tetrazolo[1,5-a]pyridine-8-carbonitrile] | 3 ± 0.2 | 29.9 ± 3.1 | 78.6 ± 5.9 | – | – | –
